The target of the assay is T1, HIV-1 RT (Human immunodeficiency virus type 1 group M subtype B, UniProt P03367).
T1 construct: Reverse transcriptase enzyme from the LAV strain of Human Immunodeficiency Virus (HIV-1) (1) was isolated from the bacterial strain JM109; made in house; host or cells: E. coli JM109, clone pBRTprtl+ in vector pIB121 under the lac promoter
Nature of the assay: Reverse Transcriptase (RT) Assay: inhibition of RNA-dependent DNA polymerase activity. The conditions noted are these: tested at a concentration of 10µg/ml; read-out: inhibit the enzyme (percent inhibition of RNA-dependent DNA polymerase activity of HIV-1 RT). It counts as biochemical. The source says: Utilizing the Reverse Transcriptase (RT) Assay described below, compounds can be tested for their ability to inhibit the RNA-dependent DNA polymerase activity of HIV-1 RT. The compound described in Example 1, which appears below, was so tested.
Among the enzymes for which Human Immunodeficiency Virus (HIV-1) encodes is a reverse transcriptase (1), so-named because it transcribes a DNA copy from an RNA template. This activity can be quantitatively measured in a cell-free enzyme assay which has been previously described (2), and is based upon the observation that reverse transcriptase is able to use a synthetic template [poly r(C) primed with oligo d(G)] to transcribe a radio-labelled, acid-precipitable DNA strand utilizing ³H-dGTP as a substrate.
Reverse transcriptase enzyme from the LAV strain of Human Immunodeficiency Virus (HIV-1) (1) was isolated from the bacterial strain JM109 (3) expressing the DNA clone pBRTprtl+ (2) which is under the control of the lac promotor in the expression vector pIB121 (4). […]
The 2X concentrated stock reaction mixture is aliquoted and stored at -20°C. […] Each vial receives 2 ml of scintillation cocktail and is counted in a Beckman beta counter. […]

In general, inhibition refers to the percentage by which the read-out fell short of the control. As for `CCCN1C(=O)c2cccnc2Oc2ncccc21` [Example 1, 5,6-Dihydro-5-propyl-6H-dipyrido[3,2-b:2′,3′-e][1,4]oxazepin-6-one], the inhibition at 10 µg/mL was 30%.

Values taken from patent publication EP0415304A2, “Dipyrido[3,2-b:2',3'-e][1,4]oxazepin (and thiazepin)-6(5H)-ones and their use in the prevention or treatment of aids” (BOEHRINGER INGELHEIM PHARMACEUTICALS INC., priority 1989, dated 1991).
